The results in this text go back to patent US7598258B2, “Quinoline derivatives and quinazoline derivatives inhibiting autophosphorylation of macrophage colony stimulating factor receptor” (Kirin Beer Kabushiki Kaisha, priority 2002, dated 2009).

The test concerns the target T1, Human KDR (Homo sapiens, UniProt P35968).
T1 construct: expressed in transfected cells; host or cells: NIH3T3 cells (mouse fibroblasts)
Kind of test: Inhibition of KDR phosphorylation in human KDR-transfected NIH3T3 cells (ELISA). The class given is cell-based. The settings on record: for Selection ratio (KDR phosphorylation IC50 / c-fms phosphorylation IC50): class 0-3; for IC50: human KDR-transfected NIH3T3 cells, VEGF 100 ng/ml, ELISA, read-out: KDR phosphorylation 50% inhibitory concentration (IC50). How it is done: Human KDR-transfected NIH3T3 cells (Sawano A et al., Cell Growth & Differentiation, 7, 213-221 (1996)) were cultured in a DMEM medium containing 10% fetal calf serum (purchased from GIBCO BRL) within a 5% carbon dioxide incubator until 50 to 70% confluent. The harvested cells were seeded into wells, containing the same medium, in a collagen type 1 coat 96-well flat-bottom plate in an amount of 1.5×10^4 per well, and cultured at 37° C. overnight. The medium was replaced with a 0.1% fetal calf serum-containing DMEM medium. The test compound dissolved in dimethyl sulfoxide was added to each well, and the cultivation was continued at 37° C. for additional one hr. A human recombinant vascular endothelial growth factor (hereinafter abbreviated to “VEGF”) was added to a final concentration of 100 ng/ml, followed by stimulation of cells at 37° C. for 2 min. The medium was removed, and the cells were washed with phosphate buffered saline (pH 7.4). A solubilization buffer (50 μl) (20 mM HEPES (pH 7.4), 150 mM NaCl, 0.2% Triton X-100, 10% glycerol, 5 mM sodium orthovanadylate, 5 mM disodium ethylenediaminetetraacetate, and 2 mM Na4P2O7) was then added thereto. The mixture was shaken at 4° C. for 2 hr to prepare a cell extract.
Separately, phosphate buffered saline (50 μl, pH 7.4) containing 5 μg/ml of anti-phospho-tyrosine antibody (PY20; purchased from Transduction Laboratories) was added to a microplate for ELISA (Maxisorp; purchased from NUNC), followed by standing at 4° C. overnight to be immobilized on the wells. After washing of the plate, 300 μl of a blocking solution was added, followed by standing at room temperature for 2 hr to perform blocking. After washing, the whole cell extract was transferred and was allowed to stand at 4° C. overnight. After washing, an anti-KDR antibody (purchased from Santa Cruz Biotechnology) was allowed to react at room temperature for one hr. Further, after washing, a peroxidase-labeled anti-rabbit Ig antibody (purchased from Amersham) was allowed to react at room temperature for one hr. After washing, a chromophoric substrate for peroxidase (purchased from Sumitomo Bakelite Co., Ltd.) was added thereto to initiate a reaction. After a suitable level of color development, a reaction termination solution was added to stop the reaction, and the absorbance at 450 nm was measured with a microplate reader. The KDR phosphorylation activity for each well was determined by presuming the absorbance without the addition of the test compound and with the addition of VEGF to be 100% KDR phosphorylation activity and the absorbance without the addition of the test compound and VEGF to be 0% KDR phosphorylation activity. The concentration of the test compound was varied on several levels, the KDR phosphorylation inhibitory rate was determined for each case, and the concentration of the test compound necessary for inhibiting 50% of KDR phosphorylation (IC50) was calculated.
On the technique in general: In an ELISA, binding on a coated surface is turned into a signal by an enzyme label.

T1 sequence (P35968 20-1356): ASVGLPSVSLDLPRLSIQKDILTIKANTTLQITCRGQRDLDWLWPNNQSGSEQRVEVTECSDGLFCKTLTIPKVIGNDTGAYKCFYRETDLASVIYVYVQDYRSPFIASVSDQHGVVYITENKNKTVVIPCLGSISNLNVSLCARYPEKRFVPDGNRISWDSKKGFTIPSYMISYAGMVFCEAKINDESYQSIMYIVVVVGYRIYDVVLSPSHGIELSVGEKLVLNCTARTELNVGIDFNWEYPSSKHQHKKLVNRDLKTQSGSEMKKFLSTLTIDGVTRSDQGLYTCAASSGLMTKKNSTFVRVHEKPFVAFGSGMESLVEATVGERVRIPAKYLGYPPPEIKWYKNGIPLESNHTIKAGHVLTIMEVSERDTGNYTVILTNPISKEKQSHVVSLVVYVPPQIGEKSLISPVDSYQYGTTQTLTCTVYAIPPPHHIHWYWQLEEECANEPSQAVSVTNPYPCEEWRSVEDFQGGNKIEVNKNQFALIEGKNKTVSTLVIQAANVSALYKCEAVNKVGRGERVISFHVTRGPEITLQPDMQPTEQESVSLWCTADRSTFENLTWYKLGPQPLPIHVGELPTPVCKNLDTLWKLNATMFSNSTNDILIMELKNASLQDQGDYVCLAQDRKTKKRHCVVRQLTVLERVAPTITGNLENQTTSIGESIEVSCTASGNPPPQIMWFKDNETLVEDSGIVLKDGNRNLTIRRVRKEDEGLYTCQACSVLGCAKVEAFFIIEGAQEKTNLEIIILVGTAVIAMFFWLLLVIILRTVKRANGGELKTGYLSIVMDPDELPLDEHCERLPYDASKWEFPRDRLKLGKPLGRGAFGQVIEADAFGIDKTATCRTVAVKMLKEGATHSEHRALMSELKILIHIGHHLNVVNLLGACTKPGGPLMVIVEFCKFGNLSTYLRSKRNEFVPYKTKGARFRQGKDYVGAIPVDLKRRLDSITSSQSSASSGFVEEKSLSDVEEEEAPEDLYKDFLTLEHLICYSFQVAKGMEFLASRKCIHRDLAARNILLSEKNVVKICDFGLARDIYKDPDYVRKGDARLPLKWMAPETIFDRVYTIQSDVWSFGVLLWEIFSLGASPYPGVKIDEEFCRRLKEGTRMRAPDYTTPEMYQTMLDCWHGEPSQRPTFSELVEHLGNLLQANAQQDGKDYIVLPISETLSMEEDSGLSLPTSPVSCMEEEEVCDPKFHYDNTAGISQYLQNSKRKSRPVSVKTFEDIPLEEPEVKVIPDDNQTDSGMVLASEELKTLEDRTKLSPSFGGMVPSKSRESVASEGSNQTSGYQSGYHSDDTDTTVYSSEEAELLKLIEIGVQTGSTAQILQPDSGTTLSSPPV

In the case of `COc1cc2c(Oc3ccc(NC(=O)NC(C)c4ccc(F)cc4)c(F)c3)ccnc2cc1OCCCN1CCOCC1` (centres unmarked) [Example 67, N-(2-Fluoro-4-{[6-methoxy-7-(3-morpholinopropoxy)-4-quinolyl]oxy}phenyl)-N′-[1-(4-fluorophenyl)ethyl]urea], the “Selection ratio (KDR phosphorylation IC50 / c-fms phosphorylation IC50)” value is 0 (KDR phosphorylation 50% inhibitory concentration [μM]/c-fms phosphorylation 50% inhibitory concentration [μM] was less than 5) and the IC50 stood at 2.9 nM.
In the same order, the values of `COc1cc2nccc(Oc3cc(C)c(NC(=O)NC(C)c4ccc(F)cc4)cc3C)c2cc1OC` (centres unmarked) [Example 7, N-{4-[(6,7-Dimethoxy-4-quinolyl)oxy]-2,5-dimethylphenyl}-N′-[1-(4-fluorophenyl)ethyl]urea] are 0 (KDR phosphorylation 50% inhibitory concentration [μM]/c-fms phosphorylation 50% inhibitory concentration [μM] was less than 5) and 3.1 nM.
For `COc1cc2nccc(Oc3ccc(NC(=O)NC(C)c4ccc(F)cc4)c(Cl)c3)c2cc1OC` (centres unmarked) [Example 4, N-{2-Chloro-4-[(6,7-dimethoxy-4-quinolyl)oxy]phenyl}-N′-[1-(4-fluorophenyl)ethyl]urea], in that order: 0 (KDR phosphorylation 50% inhibitory concentration [μM]/c-fms phosphorylation 50% inhibitory concentration [μM] was less than 5) and 1 nM.
For `COc1cc2nccc(Oc3ccc(NC(=O)N[C@H](C)c4cccc(Br)c4)c(C)c3)c2cc1OC` [Example 58, N-[(1R)-1-(3-Bromophenyl)ethyl]-N′-{4-[(6,7-dimethoxy-4-quinolyl)oxy]-2-methylphenyl}urea], in that order: 0 (KDR phosphorylation 50% inhibitory concentration [μM]/c-fms phosphorylation 50% inhibitory concentration [μM] was less than 5) and 2.1 nM.
Turning to `COc1cc2nccc(Oc3ccc(NC(=O)N[C@H](C)c4ccc(F)cc4)c(C(F)(F)F)c3)c2cc1OC` [Example 21, N-[4-[(6,7-Dimethoxy-4-quinolyl)oxy]-2-(trifluoromethyl)phenyl]-N′-[(1R)-1-(4-fluorophenyl)ethyl]urea], the “Selection ratio (KDR phosphorylation IC50 / c-fms phosphorylation IC50)” value was 0 (KDR phosphorylation 50% inhibitory concentration [μM]/c-fms phosphorylation 50% inhibitory concentration [μM] was less than 5) and the IC50 is 2.1 nM.
In the same order, the values of `COc1cc2nccc(Oc3ccc(NC(=O)NC(C)c4nc(C)cs4)cc3F)c2cc1OC` (centres unmarked) [Example 89, N-{4-[(6,7-Dimethoxy-4-quinolyl)oxy]-3-fluorophenyl}-N′-[1-(4-methyl-1,3-thiazol-2-yl)ethyl]urea] are 1 (when the value was 5 or more) and 17.4 nM.
In the same order, the values of `COc1cc2nccc(Oc3ccc(NC(=O)N[C@H](C)c4ccc(F)cc4)c(Cl)c3)c2cc1OC` [Example 6, N-{2-Chloro-4-[(6,7-dimethoxy-4-quinolyl)oxy]phenyl}-N′-[(1R)-1-(4-fluorophenyl)ethyl]urea] are 0 (KDR phosphorylation 50% inhibitory concentration [μM]/c-fms phosphorylation 50% inhibitory concentration [μM] was less than 5) and 1.8 nM.
For `COc1cc2nccc(Oc3ccc(NC(=O)N[C@H](C)c4ccc(F)cc4)c(F)c3)c2cc1OC` [Example 30, N-{4-[(6,7-Dimethoxy-4-quinolyl)oxy]-2-fluorophenyl}-N′-[(1R)-1-(4-fluorophenyl)ethyl]urea], in that order: 0 (KDR phosphorylation 50% inhibitory concentration [μM]/c-fms phosphorylation 50% inhibitory concentration [μM] was less than 5) and below 1 nM.
On to `COc1cc2nccc(Oc3ccc(NC(=O)N[C@H](C)c4ccc(F)cc4)cc3F)c2cc1OC` [Example 33, N-{4-[(6,7-Dimethoxy-4-quinolyl)oxy]-3-fluorophenyl}-N′-[(1R)-1-(4-fluorophenyl)ethyl]urea], for which the “Selection ratio (KDR phosphorylation IC50 / c-fms phosphorylation IC50)” value is 0 (KDR phosphorylation 50% inhibitory concentration [μM]/c-fms phosphorylation 50% inhibitory concentration [μM] was less than 5) and the IC50 was below 1 nM.
In the same order, the values of `COc1cc2nccc(Oc3ccc(NC(=O)N[C@@H](C)c4ccc(F)cc4)cc3F)c2cc1OC` [Example 32, N-{4-[(6,7-Dimethoxy-4-quinolyl)oxy]-3-fluorophenyl}-N′-[(1S)-1-(4-fluorophenyl)ethyl]urea] are 1 (when the value was 5 or more) and 29.4 nM.
For the compound `COc1cc2nccc(Oc3ccc(NC(=O)NC(C)c4ncc(C)s4)c(C(F)(F)F)c3)c2cc1OC` (centres unmarked) [Example 104, N-[4-[(6,7-Dimethoxy-4-quinolyl)oxy]-2-(trifluoromethyl)phenyl]-N′-[1-(5-methyl-1,3-thiazol-2-yl)ethyl]urea], the “Selection ratio (KDR phosphorylation IC50 / c-fms phosphorylation IC50)” value was 0 (KDR phosphorylation 50% inhibitory concentration [μM]/c-fms phosphorylation 50% inhibitory concentration [μM] was less than 5) and the IC50 was found to be 36.1 nM.
In the same order, the values of `COc1cc(Oc2ccnc3cc(OC)c(OC)cc23)ccc1NC(=O)NC(C)c1ncc(C)s1` (centres unmarked) [Example 105, N-{4-[(6,7-Dimethoxy-4-quinolyl)oxy]-2-methoxyphenyl}-N′-[1-(5-methyl-1,3-thiazol-2-yl)ethyl]urea] are 2 (when the value was 10 or more) and 310 nM.
In the same order, the values of `COc1cc2nccc(Oc3ccc(NC(=O)N[C@H](C)c4nccs4)cc3)c2cc1OC` [Example 79, N-{4-[(6,7-Dimethoxy-4-quinolyl)oxy]phenyl}-N′-[(1R)-1-(1,3-thiazol-2-yl)ethyl]urea] are 2 (when the value was 10 or more) and 95.2 nM.
With `COc1cc2nccc(Oc3ccc(NC(=O)NC(C)c4ncc(C)s4)c(C)c3)c2cc1OC` (centres unmarked) [Example 103, N-{4-[(6,7-Dimethoxy-4-quinolyl)oxy]-2-methylphenyl}-N′-[1-(5-methyl-1,3-thiazol-2-yl)ethyl]urea], the “Selection ratio (KDR phosphorylation IC50 / c-fms phosphorylation IC50)” value was 0 (KDR phosphorylation 50% inhibitory concentration [μM]/c-fms phosphorylation 50% inhibitory concentration [μM] was less than 5) and the IC50 worked out at 90.9 nM.
For `COc1cc2nccc(Oc3ccc(NC(=O)NC(C)c4ccc(F)cc4)c(F)c3)c2cc1OC` (centres unmarked) [Example 28, N-{4-[(6,7-Dimethoxy-4-quinolyl)oxy]-2-fluorophenyl}-N′-[1-(4-fluorophenyl)ethyl]urea], in that order: 0 (KDR phosphorylation 50% inhibitory concentration [μM]/c-fms phosphorylation 50% inhibitory concentration [μM] was less than 5) and below 1 nM.
In the same order, the values of `COc1cc2nccc(Oc3ccc(NC(=O)NC(C)c4nccs4)cc3)c2cc1OC` (centres unmarked) [Example 77, N-{4-[(6,7-Dimethoxy-4-quinolyl)oxy]phenyl}-N′-[1-(1,3-thiazol-2-yl)ethyl]urea] are 2 (when the value was 10 or more) and 101 nM.
For `COc1cc2nccc(Oc3ccc(NC(=O)NC(C)c4ncc(C)s4)c(F)c3)c2cc1OC` (centres unmarked) [Example 101, N-{4-[(6,7-Dimethoxy-4-quinolyl)oxy]-2-fluorophenyl}-N′-[1-(5-methyl-1,3-thiazol-2-yl)ethyl]urea], in that order: 2 (when the value was 10 or more) and 239 nM.
Turning to `COc1cc2nccc(Oc3ccc(NC(=O)NC(C)c4nccs4)cc3OC)c2cc1OC` (centres unmarked) [Example 80, N-{4-[(6,7-Dimethoxy-4-quinolyl)oxy]-3-methoxyphenyl}-N′-[1-(1,3-thiazol-2-yl)ethyl]urea], the “Selection ratio (KDR phosphorylation IC50 / c-fms phosphorylation IC50)” value is reported as 3 (when the value was 50 or more) and the IC50 was found to be 526 nM.
In the same order, the values of `COc1cc2nccc(Oc3cc(C)c(NC(=O)N[C@@H](C)c4nccs4)cc3C)c2cc1OC` [Example 86, N-{4-[(6,7-Dimethoxy-4-quinolyl)oxy]-2,5-dimethylphenyl}-N′-[(1S)-1-(1,3-thiazol-2-yl)ethyl]urea] are 2 (when the value was 10 or more) and 208 nM.
